Measurements as given in PubChem BioAssay (NCI).
Values joined by “and” are separate entries in the source; they are usually repeats but may differ in a detail not shown here. Equal entries are not always repeated.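 In this assay, cells in 96-well plates receive the compound at five concentrations for 48 hours. Endpoints are linearly interpolated between the surrounding concentrations. Abbreviation: GI50, concentration required for 50% inhibition of growth. TGI is the concentration that stops growth completely.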

Key:
Test in all cases: growth of human tumour cells (NCI), 48 h
KM12 colon = system: KM12 colon
RPMI-8226 leukemia = system: RPMI-8226 leukemia
OVCAR-4 ovarian = system: OVCAR-4 ovarian
IGROV1 ovarian = system: IGROV1 ovarian
MOLT-4 leukemia = system: MOLT-4 leukemia
M14 melanoma = system: M14 melanoma
A549 NSCLC = system: A549 NSCLC
NCI-H460 lung = system: NCI-H460 lung
MALME-3M melanoma = system: MALME-3M melanoma
SK-MEL-5 melanoma = system: SK-MEL-5 melanoma

Compound	GI50 (KM12 colon)	TGI (KM12 colon)	GI50 (RPMI-8226 leukemia)	TGI (RPMI-8226 leukemia)	GI50 (OVCAR-4 ovarian)	TGI (OVCAR-4 ovarian)	GI50 (IGROV1 ovarian)	TGI (IGROV1 ovarian)	GI50 (MOLT-4 leukemia)	TGI (MOLT-4 leukemia)	GI50 (M14 melanoma)	TGI (M14 melanoma)	GI50 (A549 NSCLC)	TGI (A549 NSCLC)	GI50 (NCI-H460 lung)	TGI (NCI-H460 lung)	GI50 (MALME-3M melanoma)	TGI (MALME-3M melanoma)	GI50 (SK-MEL-5 melanoma)	TGI (SK-MEL-5 melanoma)
NC(N)=N/N=C/c1cccc(Cl)c1Cl	2.17 µM	4.91 µM	3.39 µM	15.1 µM	13 µM	26.8 µM	11 µM	25.6 µM	6.13 µM	23.9 µM	1.98 µM	4.04 µM	7.51 µM	21.9 µM	3.76 µM	14.7 µM	4.62 µM	18.1 µM	2.33 µM	6.64 µM
COC(=O)C1=C(c2cc(OC)c(OC)c(OC)c2)OC(c2cc(OC)c(OC)c(OC)c2)C1COC(C)=O (stereo not given)	–	> 100 µM	–	> 100 µM	–	> 100 µM	–	> 100 µM	–	58.7 µM	–	> 100 µM	–	> 100 µM	–	> 100 µM	–	> 100 µM	–	97.8 µM
Oc1ccc(Br)cc1/C=N/NC(=S)NC12CC3CC(CC(C3)C1)C2	1.8 µM	4.35 µM	2.07 µM	5.8 µM	1.25 µM	4.09 µM	1.81 µM	5.89 µM	1.89 µM	6.81 µM	1.86 µM	5.84 µM	1.82 µM	5.07 µM	0.645 µM	2.17 µM	2.23 µM	6.26 µM	1.72 µM	3.74 µM
COc1ccc2c(c1OC)-c1c(c3ccc([N+](=O)[O-])cc3c(=O)n1CCCN=[N+]=[N-])C2=O	> 100 µM	> 100 µM	5.18 µM	> 100 µM	> 100 µM	> 100 µM	1.02 µM	23.9 µM	3.12 µM	> 100 µM	3.46 µM	10.6 µM	4.18 µM	> 100 µM	9.97 µM	> 100 µM	> 100 µM	> 100 µM	12.2 µM	> 100 µM
BrC(Br)(Br)c1cnc2ccccc2n1	2.37 µM	7.7 µM	2.18 µM	6.02 µM	1.46 µM	3.98 µM	2.2 µM	6.8 µM	2.46 µM	8.54 µM	2.05 µM	6.42 µM	1.75 µM	4.66 µM	1.36 µM	4.21 µM	1.55 µM	5.28 µM	2.32 µM	7.54 µM
Cc1ccc(C2SCc3nc4ccc(C(=O)c5ccccc5)cc4n32)cc1 (stereo not given)	6.49 µM	35.2 µM	10.3 µM	> 95 µM	34 µM	> 100 µM	13.6 µM	> 69 µM	14.8 µM	> 100 µM	11.6 µM	> 69.1 µM	5.99 µM	> 63.3 µM	10.7 µM	> 75.6 µM	6.27 µM	26.8 µM	1.33 µM	7.48 µM
CN(/N=C/c1ccnc2ccccc12)c1ccc([N+](=O)[O-])cc1[N+](=O)[O-]	–	> 100 µM	–	> 100 µM	–	> 100 µM	–	> 100 µM	–	> 100 µM	–	> 100 µM	–	> 100 µM	–	> 100 µM	–	> 100 µM	–	> 100 µM
CC1CCC2C(C)C3C(CC4C5CC=C6CC(OC7OC(CO)C(O)C(OC8OC(CO)C(O)C(O)C8O)C7OC7OC(C)C(O)C(O)C7O)CCC6(C)C5CCC43C)N2C1 (stereo not given)	> 2.5 µg/mL	28.3 µM and > 2.5 µg/mL	> 2.5 µg/mL	45.9 µM and > 2.5 µg/mL	> 2.5 µg/mL	20.3 µM and > 2.5 µg/mL	> 2.5 µg/mL	26.2 µM and > 2.5 µg/mL	> 2.5 µg/mL	60.9 µM and > 2.5 µg/mL	> 2.5 µg/mL	9.84 µM and > 2.5 µg/mL	> 2.5 µg/mL	16.7 µM and > 2.5 µg/mL	> 2.5 µg/mL	37.6 µM and > 2.5 µg/mL	> 2.5 µg/mL	65.3 µM and > 2.5 µg/mL	> 2.5 µg/mL	33.3 µM and > 2.5 µg/mL
O=C(CCCNC(=O)OCc1ccccc1)OCc1ccc2c(c1)C(=O)c1ccccc1C2=O	–	> 100 µM	–	> 100 µM	–	> 100 µM	–	99 µM	–	> 100 µM	–	> 100 µM	–	> 100 µM	–	> 100 µM	–	> 100 µM	–	> 100 µM
O=C(O)c1ccc(-c2ccc(C(=O)O)cc2I)c(I)c1	> 100 µM	> 100 µM	> 100 µM	> 100 µM	> 100 µM	> 100 µM	> 100 µM	> 100 µM	> 100 µM	> 100 µM	> 100 µM	> 100 µM	> 100 µM	> 100 µM	> 100 µM	> 100 µM	> 100 µM	> 100 µM	> 100 µM	> 100 µM
